# pEC50: −log10 of the molar value. Like-named read-outs stand apart in the source and are kept apart here.
# Tests used:
# [1] = test system: Candida parapsilosis; assay: Antifungal MIC (RPMI-1640 microdilution); assay type: cell-based; conditions: for MIC50 / MIC: Lodderomyces parapsilosis
# [2] = test system: C. krusei; assay: Antifungal MIC (RPMI-1640 microdilution); assay type: cell-based; conditions: Pichia kudriavzevii, isolate ATCC 6258
# [3] = test system: Candida guilliermondii; assay: Antifungal MIC (RPMI-1640 microdilution); assay type: cell-based; conditions: Meyerozyma guilliermondii
# [4] = test system: P. variotii; assay: Antifungal MIC (RPMI-1640 microdilution); assay type: cell-based; conditions: Paecilomyces variotii, isolate MYA-3630
# [5] = test system: Sporothrix sp.; assay: Antifungal MIC (RPMI-1640 microdilution); assay type: cell-based
# [6] = test system: Saksenaea sp.; assay: Antifungal MIC (RPMI-1640 microdilution); assay type: cell-based
# [7] = test system: Aspergillus fumigatus; assay: Antifungal MIC (RPMI-1640 microdilution); assay type: cell-based
# [8] = test system: Histoplasma capsulatum; assay: microbe, parasite or virus in culture; assay type: cell-based
# [9] = test system: Coccidioides sp.; assay: microbe, parasite or virus in culture; assay type: cell-based
# [10] = test system: Staphylococcus aureus; assay: Antibacterial MIC (broth microdilution); assay type: cell-based
# [11] = test system: Enterococcus faecalis; assay: Antibacterial MIC (broth microdilution); assay type: cell-based
# [12] = test system: E. coli; assay: Antibacterial MIC (broth microdilution); assay type: cell-based
# Method: Growth Medium—Cation adjusted Mueller-Hinton broth was used as the test medium. Broth for panel preparation was prepared from commercial dehydrated medium (Difco formulation, BD Diagnostics, catalog number 275730).
# Dilution of Investigational Agents—Polystyrene test tubes were used to prepare the drug dilutions and sterile U-shaped 96-well polystyrene microtiter trays were used for performing the MIC assays. Stock solutions of the investigational agents were prepared at concentrations 100-times the highest concentration to be tested (6400-1.25 μg/ml) using dimethyl sulfoxide. Aliquots of the stock solutions were dispensed into polypropylene vials and stored at −20° C. Further dilutions (1:50) were made in the culture medium (cation-adjusted Mueller-Hinton medium).
# After the dilutions of the working 2-fold investigational antibacterial solutions were prepared, 50 μL of each concentration was transferred into rows of the first 10 wells of each 12-well column of the U-shaped disposable 96-well microtiter trays using a multichannel pipettor. The 11th well in each row served as the sterility control, and the 12th well contained only culture medium to serve as the growth control for each isolate. In like manner, the control drug for the organism being tested was prepared in a separate 96 well panel exactly as described above. A 50 μL volume of the standardized inoculum suspension of each test isolate was prepared in culture medium to directly inoculate each test well of the drug containing microtiter tray.
# Inoculum Preparation—Colonies of each strain generated on sheep blood agar plates with overnight growth at 35° C. in ambient air were used to directly prepare a suspension equivalent in density to the 0.5 McFarland opacity standard. The exact turbidity of each suspension was determined using a desktop portable photometer. For panels containing 2× drug concentrations, a 1:100 dilution of the McFarland organism suspension was prepared in cation-adjusted Mueller-Hinton broth and 50 μL aliquots of each test (and control) strain was added to each well of the designated rows of the microtiter trays using a multichannel pipettor. The target inoculum concentration was 5×10^5 CFU/ml in each well.
# Trays were removed and each well were inspected for evidence of growth (turbidity). The MIC was defined as the lowest concentration of the investigational agent and the control drug that prevents visibly discernible growth in the test wells.
# [13] = test system: A. baumannii; assay: Antibacterial MIC (broth microdilution); assay type: cell-based; conditions: Acinetobacter baumannii
# [14] = test system: K. pneumoniae; assay: Antibacterial MIC (broth microdilution); assay type: cell-based; conditions: Klebsiella pneumoniae
# [15] = test system: SARS-CoV-2; assay: microbe, parasite or virus in culture; assay type: cell-based
# [16] = test system: HCMV strain AD169; assay: CPE assay for HCMV in HFF cells; assay type: cell-based; conditions: Human betaherpesvirus 5, AD169
# [17] = test system: MCMV strain Smith; assay: MCMV qPCR assay in mouse embryo fibroblast cells; assay type: cell-based; conditions: 168 h, 7 d
# [18] = Blood cell:plasma partitioning experiments; assay type: in vitro ADME, human; conditions: humans
# [19] = test system: Vero E6 cells; conditions: African green monkey
# [20] = test system: Babesia; conditions: mice; cited from earlier work
# [21] = read-out: MIC 100% inhibition, isolate AF293
structure (smiles),measurement,setting,value
COc1cc(C)c2c(Oc3cccc(C(F)(F)F)c3)c(OC)cc(NC(C)CCCN)c2n1.O=C(O)CCC(=O)O (stereo not shown) [Tafenoquine Succinate],MIC50,"[1]; ATCC22019, read-out: MIC 50% inhibition, isolate ATCC 22019",4 µg/mL
same,MIC,"[1]; ATCC22019, read-out: MIC 100% inhibition, isolate ATCC 22019",4 µg/mL
same,MIC50,"[1]; read-out: MIC 50% inhibition, isolate CP1",4 µg/mL
same,MIC,"[1]; read-out: MIC 100% inhibition, isolate CP1",4 µg/mL
same,MIC,"[1]; read-out: MIC 100% inhibition, isolate CP2",4 µg/mL
same,MIC,"[1]; read-out: MIC 100% inhibition, isolate CP3",8 µg/mL
same,MIC 50% inhibition,[1]; isolate CP2,4 µg/mL
same,MIC 50% inhibition,[1]; isolate CP3,4 µg/mL
same,MIC50,"[2]; ATCC6258, read-out: MIC 50% inhibition",4 µg/mL
same,MIC,"[2]; ATCC6258, read-out: MIC 100% inhibition",4 µg/mL
same,MIC50,"[3]; read-out: MIC 50% inhibition, isolate Cgui1",2 µg/mL
same,MIC50,"[3]; read-out: MIC 50% inhibition, isolate Cgui2",2 µg/mL
same,MIC50,"[3]; read-out: MIC 50% inhibition, isolate Cgui3",4 µg/mL
same,MIC,"[3]; read-out: MIC 100% inhibition, isolate Cgui1",4 µg/mL
same,MIC,"[3]; read-out: MIC 100% inhibition, isolate Cgui2",2 µg/mL
same,MIC,"[3]; read-out: MIC 100% inhibition, isolate Cgui3",4 µg/mL
same,MIC50,[4]; read-out: MIC 50% inhibition,4 µg/mL
same,MIC,[4]; read-out: MIC 100% inhibition,4 µg/mL
same,MIC50,"[5]; read-out: MIC 50% inhibition, isolate Sporo1",2 µg/mL
same,MIC50,"[5]; read-out: MIC 50% inhibition, isolate Sporo2",1 µg/mL
same,MIC50,"[5]; read-out: MIC 50% inhibition, isolate Sporo3",2 µg/mL
same,MIC,"[5]; read-out: MIC 100% inhibition, isolate Sporo1",4 µg/mL
same,MIC,"[5]; read-out: MIC 100% inhibition, isolate Sporo2",2 µg/mL
same,MIC,"[5]; read-out: MIC 100% inhibition, isolate Sporo3",4 µg/mL
same,MIC50,"[6]; read-out: MIC 50% inhibition, isolate Sak1",4 µg/mL
same,MIC50,"[6]; read-out: MIC 50% inhibition, isolate Sak2",2 µg/mL
same,MIC50,"[6]; read-out: MIC 50% inhibition, isolate Sak3",8 µg/mL
same,MIC,"[6]; read-out: MIC 100% inhibition, isolate Sak1",8 µg/mL
same,MIC,"[6]; read-out: MIC 100% inhibition, isolate Sak2",2 µg/mL
same,MIC,"[6]; read-out: MIC 100% inhibition, isolate Sak3",8 µg/mL
same,MIC50,"[7]; read-out: MIC 50% inhibition, isolate AF293",8 µg/mL
same,MIC50,"[7]; read-out: MIC 50% inhibition, isolate D115-106",4 µg/mL
same,MIC50,"[7]; read-out: MIC 50% inhibition, isolate D115-116",4 µg/mL
same,MIC,[7]; [21],16 µg/mL
same,MIC,"[7]; read-out: MIC 100% inhibition, isolate D115-106",8 µg/mL
same,MIC,"[7]; read-out: MIC 100% inhibition, isolate D115-116",4 µg/mL
same,MIC50,"[8]; read-out: MIC 50% inhibition, isolate HC1",4 µg/mL
same,MIC50,"[8]; read-out: MIC 50% inhibition, isolate HC2",2 µg/mL
same,MIC50,"[8]; read-out: MIC 50% inhibition, isolate HC3",8 µg/mL
same,MIC,"[8]; read-out: MIC 100% inhibition, isolate HC1",4 µg/mL
same,MIC,"[8]; read-out: MIC 100% inhibition, isolate HC2",4 µg/mL
same,MIC,"[8]; read-out: MIC 100% inhibition, isolate HC3",8 µg/mL
same,MIC50,"[9]; read-out: MIC 50% inhibition, isolate Cocci1",4 µg/mL
same,MIC50,"[9]; read-out: MIC 50% inhibition, isolate Cocci2",16 µg/mL
same,MIC50,"[9]; read-out: MIC 50% inhibition, isolate D117-143",16 µg/mL
same,MIC,"[9]; read-out: MIC 100% inhibition, isolate Cocci1",8 µg/mL
same,MIC,"[9]; read-out: MIC 100% inhibition, isolate Cocci2",16 µg/mL
same,MIC,"[9]; read-out: MIC 100% inhibition, isolate D117-143",16 µg/mL
same,MIC,"[10]; Staphylococcus aureus, ATCC29213, isolate ATCC 29213, read-out: MIC",8 µg/mL
same,MIC,"[10]; Staphylococcus aureus, isolate 6215, read-out: MIC",8 µg/mL
same,MIC,[10]; isolate 6229,8 µg/mL
same,MIC,"[11]; ATCC29212, isolate ATCC 29212",8 µg/mL
same,MIC,[11]; isolate 1768,8 µg/mL
same,MIC,"[12]; Escherichia coli, ATCC25922, isolate ATCC 25922, read-out: MIC",> 64 µg/mL
same,MIC,"[12]; Escherichia coli, isolate J4243 (MO72), read-out: MIC",> 64 µg/mL
same,MIC,[12]; isolate J4244 (JJ1886),>64 µg/mL
same,MIC,"[13]; ATCC17978, isolate ATCC 17978",64 µg/mL
same,MIC,[13]; isolate AR-88,64 µg/mL
same,MIC,[13]; isolate AR-273,> 64 µg/mL
same,MIC,"[14]; ATCC70063, isolate ATCC 70063",> 64 µg/mL
same,MIC,[14]; isolate AR-97,> 64 µg/mL
same,MIC,[14]; isolate AR-113,> 64 µg/mL
"COc1cc(C)c2c(Oc3cccc(C(F)(F)F)c3)c(OC)cc(NC(C)CCCN)c2n1 (stereo not shown) [Tafenoquine, N(4)-[2,6-Dimethoxy-4-methyl-5-[3-(trifluoromethyl)phenoxy]quinolin-8-yl]pentane-1,4-diamine]",MIC,[7]; [21],16 µg/mL
same,selectivity index,[15]; 4-day assay,2.4
same,pEC50,"[15]; Severe acute respiratory syndrome coronavirus 2, Vero C1008, 96 h",4.80
same,pEC50,[16],< 5.22
same,pEC50,[17],< 5.22
same,ratio of the blood cell:plasma concentration,[18],1.4
same,CC50,[19],37.2 µM
same,dose clearing Babesia parasitemia,[20],20 mg/kg

# From patent US12691107B2, “Methods for the treatment and prevention of lung infections caused by gram-positive bacteria, fungus, or virus by administration of tafenoquine” (priority 2020, dated 2026)
